The record followed here is patent US9814704B2, “Substituted pyrrolo[2,3-b]pyridines as MLK inhibitors” (The University of Rochester, priority 2008, dated 2017).

MLK3, sequence (Q16584 whole entry): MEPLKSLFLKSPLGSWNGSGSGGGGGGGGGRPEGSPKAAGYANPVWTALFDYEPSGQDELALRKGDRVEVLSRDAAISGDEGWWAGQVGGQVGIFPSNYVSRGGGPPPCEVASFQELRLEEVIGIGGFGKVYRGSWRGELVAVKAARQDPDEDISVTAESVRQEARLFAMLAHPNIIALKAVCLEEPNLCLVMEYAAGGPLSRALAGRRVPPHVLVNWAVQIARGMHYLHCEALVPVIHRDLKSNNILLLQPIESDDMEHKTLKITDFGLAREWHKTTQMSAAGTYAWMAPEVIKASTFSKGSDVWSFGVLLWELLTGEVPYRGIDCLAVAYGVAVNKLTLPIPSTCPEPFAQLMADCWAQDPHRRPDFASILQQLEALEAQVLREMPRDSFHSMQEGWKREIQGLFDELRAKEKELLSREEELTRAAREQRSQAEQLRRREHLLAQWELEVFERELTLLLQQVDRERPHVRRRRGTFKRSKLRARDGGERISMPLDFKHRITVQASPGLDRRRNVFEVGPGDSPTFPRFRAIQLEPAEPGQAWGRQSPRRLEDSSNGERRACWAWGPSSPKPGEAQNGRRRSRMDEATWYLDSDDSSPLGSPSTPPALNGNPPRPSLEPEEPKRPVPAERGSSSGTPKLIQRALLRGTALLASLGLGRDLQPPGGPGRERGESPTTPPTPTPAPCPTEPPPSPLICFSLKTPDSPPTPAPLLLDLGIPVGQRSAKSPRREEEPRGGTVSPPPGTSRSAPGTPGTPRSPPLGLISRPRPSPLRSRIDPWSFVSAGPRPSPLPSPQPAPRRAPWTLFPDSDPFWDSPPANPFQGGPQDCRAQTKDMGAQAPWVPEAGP

The target of the first test is MLK3 (Homo sapiens (Human), UniProt Q16584). The test is described as follows: Radiometric Filter Plate MLK3 Assay. The class given is biochemical. Conditions: 200 ng (130 nM) MLK3, 1 μM inactive MKK7b, 2 μM cold ATP (Km), 33P ATP, twenty minute incubation; read-out: MK3 IC50. The procedure:
Radiometric Filter Plate MLK3 Assay
After a twenty minute incubation, the reactions were washed through filter plates and read on a scintillation counter. Results are shown in Table 4 below, in which +++ indicates ≦0.1 μM, ++ indicates >0.1 μM and ≦1 μM, and + indicates >1 μM.
Consider `COc1cc(-c2cnc3c(c2)C(=Cc2cccc(C(N)=O)c2)C(=O)N3)cc(OC)c1OC` [Example 132, 3-[2-oxo-5-(3,4,5-trimethoxy-phenyl)-1,2-dihydro-pyrrolo[2,3-b]pyridin-3-ylidenemethyl]-benzamide], for which the IC50 was over 1 µM.

On to `O=c1[nH]c2ncc(-c3ccc(O)cc3)nc2n1CC1CC1` [Example 81, 1-(cyclopropylmethyl)-6-(4-hydroxyphenyl)-1H-imidazo[4,5-b]pyrazin-2(3H)-one], for which the IC50 is over 1 µM.

On to `COc1cc(-c2cnc3c(c2)/C(=C\c2ccncc2)C(=O)N3)cc(OC)c1OC` [Example 129, (E)- and (Z)-3-pyridin-4-ylmethylene-5-(3,4,5-trimethoxy-phenyl)-1,3-dihydro-pyrrolo[2,3-b]pyridin-2-one], for which the IC50 was over 1 µM.

As to `CN1CCN(c2cc(-c3cnc4[nH]c(=O)n(-c5ccc6[nH]ccc6c5)c4n3)ccn2)CC1` [Example 66, 1-(1H-indol-5-yl)-6-(2-(4-methylpiperazin-1-yl)pyridin-4-yl)-1H-imidazo[4,5-b]pyrazin-2(3H)-one], the IC50 was over 1 µM.

In the case of `Nc1ncc(-c2cnc3[nH]cc(-c4cnc(N)nc4)c3c2)cn1` [Example 20, 5,5′-(1H-pyrrolo[2,3-b]pyridine-3,5-diyl)dipyrimidin-2-amine], the IC50 was over 1 µM.

Turning to `CN1CCN(C(=O)c2cccc(-c3cnc4[nH]cc(-c5ccc6[nH]ccc6c5)c4c3)c2)CC1` [Example 147, {3-[3-(1H-indol-5-yl)-1H-pyrrolo[2,3-b]pyridin-5-yl]-phenyl}-(4-methyl-piperazin-1-yl)-methanone], the IC50 is under 0.1 µM.

As for `CN1CCN(Cc2ccc(-c3c[nH]c4ncc(-c5ccc6[nH]ccc6c5)cc34)cc2)CC1` [Example 163, 5-(1H-indol-5-yl)-3-[4-(4-methyl-piperazin-1-ylmethyl)-phenyl]-1H-pyrrolo[2,3-b]pyridine], the IC50 is over 1 µM.

Turning to `COc1cc(-c2cnc3[nH]c(=O)n(-c4ccc5[nH]ccc5c4)c3n2)cc(OC)c1OC` [Example 40, 1-(1H-indol-5-yl)-6-(3,4,5-trimethoxyphenyl)-1H-imidazo[4,5-b]pyrazin-2(3H)-one], the IC50 was under 0.1 µM.

As for `COc1ccc(-n2c(=O)[nH]c3ncc(-c4ccc(OC)c(OC)c4)nc32)cc1` [Example 69, 6-(3,4-dimethoxyphenyl)-1-(4-methoxyphenyl)-1H-imidazo[4,5-b]pyrazin-2(3H)-one], the half-maximal inhibitory concentration (IC50) was over 1 µM.

For the compound `COc1cc(OC)cc(-c2cnc3[nH]c(=O)n(-c4ccc5[nH]ccc5c4)c3n2)c1` [Example 65, 6-(3,5-dimethoxyphenyl)-1-(1H-indol-5-yl)-1H-imidazo[4,5-b]pyrazin-2(3H)-one], the concentration for half-maximal inhibition (IC50) is over 1 µM.

Turning to `Cc1cc(C)cc(-c2cnc3[nH]c(=O)n(-c4ccc5c(ccn5C)c4)c3n2)c1` [Example 43, 6-(3,5-dimethylphenyl)-1-(1-methyl-1H-indol-5-yl)-1H-imidazo[4,5-b]pyrazin-2(3H)-one], the IC50 was over 1 µM.

`O=c1[nH]c2ncc(-c3ccncc3)nc2n1-c1ccc2scnc2c1` [Example 98, 1-(benzo[d]thiazol-5-yl)-6-(pyridin-4-yl)-1H-imidazo[4,5-b]pyrazin-2(3H)-one]: the IC50 is over 1 µM.

For the compound `O=c1[nH]c2ncc(-c3ccc(N4CCOCC4)cc3)nc2n1CC1CC1` [Example 86, 1-(cyclopropylmethyl)-6-(4-morpholinophenyl)-1H-imidazo[4,5-b]pyrazin-2(3H)-one], the IC50 is over 1 µM.

Turning to `O=c1[nH]c2ncc(-c3ccncc3)nc2n1-c1ccc2[nH]ncc2c1` [Example 88, 1-(1H-indazol-5-yl)-6-(pyridin-4-yl)-1H-imidazo[4,5-b]pyrazin-2(3H)-one], the IC50 is over 1 µM.

As for `COc1ccc(-c2cnc3[nH]c(=O)n(-c4ccc5[nH]ccc5c4)c3n2)cc1F` [Example 49, 6-(3-fluoro-4-methoxyphenyl)-1-(1H-indol-5-yl)-1H-imidazo[4,5-b]pyrazin-2(3H)-one], the IC50 was over 1 µM.

On to `Cn1ccc2cc(-n3c(=O)[nH]c4ncc(-c5ccc(O)cc5)nc43)ccc21` [Example 42, 6-(4-hydroxyphenyl)-1-(1-methyl-1H-indol-5-yl)-1H-imidazo[4,5-b]pyrazin-2(3H)-one], for which the IC50 was over 1 µM.

Take `COc1cc(-c2cnc3[nH]c(=O)n(C4CCc5ccccc54)c3n2)cc(OC)c1OC` (stereo not shown) [Example 101, 1-(2,3-dihydro-1H-inden-1-yl)-6-(3,4,5-trimethoxyphenyl)-1H-imidazo[4,5-b]pyrazin-2(3H)-one]: the IC50 is over 1 µM.

On to `COc1cc(-c2cnc3[nH]cc(-c4ccc5[nH]ccc5c4)c3n2)ccc1OCCN1CCOCC1` [Example 39, 4-(2-(4-(7-(1H-indol-5-yl)-5H-pyrrolo[3,2-b]pyrazin-2-yl)-2-methoxyphenoxy)ethyl)morpholine], for which the half-maximal inhibitory concentration (IC50) is under 0.1 µM.

Regarding `COc1cc(-c2cnc3c(c2)C(=Cc2ccc(C#N)cc2)C(=O)N3)cc(OC)c1OC` [Example 133, 4-[2-oxo-5-(3,4,5-trimethoxy-phenyl)-1,2-dihydro-pyrrolo[2,3-b]pyridin-3-ylidenemethyl]-benzonitrile], the IC50 was over 1 µM.

As for `COc1cc(-c2cnc3[nH]c(=O)n(-c4ccc5[nH]c(C)cc5c4)c3n2)cc(OC)c1OC` [Example 72, 1-(2-methyl-1H-indol-5-yl)-6-(3,4,5-trimethoxyphenyl)-1H-imidazo[4,5-b]pyrazin-2(3H)-one], the IC50 was under 0.1 µM.

As for `O=c1[nH]c2ncc(-c3cc(F)cc(F)c3)nc2n1-c1ccc2[nH]ccc2c1` [Example 61, 6-(3,5-difluorophenyl)-1-(1H-indol-5-yl)-1H-imidazo[4,5-b]pyrazin-2(3H)-one], the IC50 was over 1 µM.

With `COc1cc(-c2cnc3c(c2)C(=Cc2cccc(C#N)c2)C(=O)N3)cc(OC)c1OC` [Example 134, 3-[2-oxo-5-(3,4,5-trimethoxy-phenyl)-1,2-dihydro-pyrrolo[2,3-b]pyridin-3-ylidenemethyl]-benzonitrile], the IC50 was over 1 µM.

`CC(C)(C)OC(=O)N1CCN(C(=O)c2ccc(-c3cnc4[nH]cc(-c5ccc(C(N)=O)cc5)c4c3)cc2)CC1` [Example 148, 4-{4-[3-(4-carbamoyl-phenyl)-1H-pyrrolo[2,3-b]pyridin-5-yl]-benzoyl}-piperazine-1-carboxylic acid tert-butyl ester]: the IC50 is under 0.1 µM.

As for `COc1ccc(-n2c(=O)[nH]c3ncc(-c4ccncc4)nc32)cc1` [Example 71, 1-(4-methoxyphenyl)-6-(pyridin-4-yl)-1H-imidazo[4,5-b]pyrazin-2(3H)-one], the IC50 was over 1 µM.

`O=c1[nH]c2ncc(-c3ccncc3)nc2n1CC1CC1` [Example 82, 1-(cyclopropylmethyl)-6-(pyridin-4-yl)-1H-imidazo[4,5-b]pyrazin-2(3H)-one]: the IC50 is over 1 µM.

The same test, now with this note: read-out: MK3 IC50.
For the compound `c1cc2cc(-c3cnc4[nH]cc(-c5ccc6[nH]ccc6c5)c4c3)ccc2[nH]1` [Example 12, 3,5-di(1H-indol-5-yl)-1H-pyrrolo[2,3-b]pyridine], the IC50 is 0.1 to 1 µM.

As for `c1cc2cc(-c3c[nH]c4ncc(-c5ccc(N6CCNCC6)nc5)cc34)ccc2[nH]1` [Example 10, 3-(1H-indol-5-yl)-5-(6-(piperazin-1-yl)pyridin-3-yl)-1H-pyrrolo[2,3-b]pyridine], the IC50 is 0.1 to 1 µM.

For the compound `O=c1[nH]c2ncc(-c3ccc(O)cc3)nc2n1-c1ccc2scnc2c1` [Example 97, 1-(benzo[d]thiazol-5-yl)-6-(4-hydroxyphenyl)-1H-imidazo[4,5-b]pyrazin-2(3H)-one], the IC50 fell in the range of 0.1 to 1 µM.

For `CC(=O)N1CCN(Cc2ccc(-c3cnc4[nH]cc(-c5ccc6[nH]ccc6c5)c4c3)cc2)CC1` [Example 140, 1-(4-{4-[3-(1H-indol-5-yl)-1H-pyrrolo[2,3-b]pyridin-5-yl]-benzyl}-piperazin-1-yl)-ethanone], the IC50 is over 1 µM.

`COc1ccc(-c2cnc3[nH]c(=O)n(-c4ccc5[nH]ccc5c4)c3n2)cc1OC` [Example 47, 6-(3,4-dimethoxyphenyl)-1-(1H-indol-5-yl)-1H-imidazo[4,5-b]pyrazin-2(3H)-one]: the IC50 was in the range of 0.1 to 1 µM.

Regarding `COc1ccc(-c2cnc3[nH]c(=O)n(-c4cnc5[nH]ccc5c4)c3n2)cc1OC` [Example 111, 6-(3,4-dimethoxyphenyl)-1-(1H-pyrrolo[2,3-b]pyridin-5-yl)-1H-imidazo[4,5-b]pyrazin-2(3H)-one], the IC50 was 0.1 to 1 µM.

As for `O=c1[nH]c2ncc(-c3ccc(N4CCOCC4)cc3)nc2n1-c1ccc(O)cc1` [Example 116, 1-(4-hydroxyphenyl)-6-(4-morpholinophenyl)-1H-imidazo[4,5-b]pyrazin-2(3H)-one], the IC50 was 0.1 to 1 µM.

`CNc1ccc(-c2cnc3[nH]cc(-c4ccc5[nH]ccc5c4)c3c2)cn1` [Example 30, 5-(3-(1H-indol-5-yl)-1H-pyrrolo[2,3-b]pyridin-5-yl)-N-methylpyridin-2-amine]: the IC50 is under 0.1 µM.

Take `COc1cc(-c2cnc3[nH]c(=O)n(CC4CC4)c3n2)cc(OC)c1OC` [Example 78, 1-(cyclopropylmethyl)-6-(3,4,5-trimethoxyphenyl)-1H-imidazo[4,5-b]pyrazin-2(3H)-one]: the IC50 was in the range of 0.1 to 1 µM.

As to `COc1cc(-c2cnc3[nH]c(=O)n(CC4CC4)c3n2)ccc1OCCN1CCOCC1` [Example 107, 1-(cyclopropylmethyl)-6-(3-methoxy-4-(2-morpholinoethoxy)phenyl)-1H-imidazo[4,5-b]pyrazin-2(3H)-one], the IC50 fell in the range of 0.1 to 1 µM.

As to `COc1cc(-c2cnc3[nH]c(=O)n(-c4ccccc4)c3n2)cc(OC)c1OC` [Example 105, 1-phenyl-6-(3,4,5-trimethoxyphenyl)-1H-imidazo[4,5-b]pyrazin-2(3H)-one], the IC50 was 0.1 to 1 µM.

Turning to `CN(C)c1ccc(-c2cnc3[nH]cc(-c4ccc(N(C)C)nc4)c3c2)cn1` [Example 21, 5,5′-(1H-pyrrolo[2,3-b]pyridine-3,5-diyl)bis(N,N-dimethylpyridin-2-amine)], the IC50 is 0.1 to 1 µM.
